Test results: patent US7062219B2, “Protein fragment complementation assays for high-throughput and high-content screening” (Odyssey Thera Inc., priority 1997, dated 2006)
Entries after “also recorded” stand apart in the source; their conditions may differ.

Assays:
Chk1/p53 interaction = biological target: T1, Chk1/p53 interaction (Homo sapiens, UniProt O14757); assay: beta-lactamase PCA (BLA PCA) for Chk1/p53 in HEK293E cells; format: cell-based; conditions: HEK293E cells treated with 300 nM camptothecin; 10 micromolar DBH, 50 micromolar Go6976
T1 construct: expressed in transfected cells; host or cells: HEK293E
T1 sequence (O14757 1-476): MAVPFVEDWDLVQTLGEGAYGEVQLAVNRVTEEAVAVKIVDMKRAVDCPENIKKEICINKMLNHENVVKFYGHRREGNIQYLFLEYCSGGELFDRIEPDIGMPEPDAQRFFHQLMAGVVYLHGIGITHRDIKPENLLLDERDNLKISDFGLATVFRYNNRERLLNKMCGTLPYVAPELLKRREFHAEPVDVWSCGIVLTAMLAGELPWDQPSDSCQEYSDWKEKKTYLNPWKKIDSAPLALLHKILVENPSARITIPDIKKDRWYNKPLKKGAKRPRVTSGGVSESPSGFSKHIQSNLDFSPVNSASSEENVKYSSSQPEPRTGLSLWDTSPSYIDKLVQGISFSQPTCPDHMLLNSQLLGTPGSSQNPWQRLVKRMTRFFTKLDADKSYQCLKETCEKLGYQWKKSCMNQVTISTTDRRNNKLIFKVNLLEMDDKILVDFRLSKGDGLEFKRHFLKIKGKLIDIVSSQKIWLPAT
Experimental: For the BLA PCA, the genes of interest—which were known to be involved in DNA damage response pathways—were fused to BLA reporter fragments, and co-transfected in pairs (in 6 replicates) into HEK293E cells. Specifically, interactions between two key proteins, p53 and the checkpoint kinase, Chk1, were evaluated for their response to the DNA damaging agent camptothecin (CPT) and various known drugs or compounds. Full length cDNAs (sequence verified) encoding p53 [NM_000546] and Chk1 [NM_001274] were amplified by PCR and the resulting fragments fused in-frame to the 3′-end of BLA[1] or BLA[2] through a flexible 10 amino acid linker. The resulting BLA[1]-p53, BLA[2]-p53, and BLA[2]-Chk1 constructs contained an EBNA-1 origin for episomal replication in HEK293E cells, but no selectable markers for long term maintenance in cell culture. All constructs were sequenced to confirm the integrity of the reporter-gene fusion prior to use in assays. […] Hydrolysis of the beta-lactam ring by reconstituted BLA releases free coumarin which has a blue fluorescence. […] For each protein pair, the rate of hydrolysis of the substrate was determined immediately after addition of substrate by a kinetic assay on a Molecular Devices Gemini XS plate reader. Accumulated fluorescent substrate was excited at 345 nm and detected at 440 nm every 10 minutes for a 90 minute period. […]

p50/p65 complex = assay: stable HEK293T p50/p65 YFP PCA cell line, nuclear translocation (N:C ratio); format: cell-based; conditions: 10 micromolar compound, 25 ng/ml TNF 30 minutes
Experimental: Stable cell lines represent the gold standard for HTS since the assays can be reconstructed at any time from frozen stocks of cells. […] First, cells were co-transfected with YFP[2]-p65 encoding vectors, and stable cell lines were selected using 100 micrograms/ml of Hygromycin B (Invitrogen). Selected cell lines were then transfected with YFP[1]-p50. Stable cell lines expressing YFP[1]-p50/YFP[2]-p65 were isolated following double antibiotic selection with 50 μg/ml Hygromycin B and 500 μg/ml Zeocin. Cell clones stably expressing the fusion genes were identified by immunoblot analysis and fluorescence microscopy. A single cell line of each transfectant was selected for further characterization. Fluorescence of these lines is stable over at least 25 passages (data not shown). A stable, MEK/ERK cell line—constructed as described below—was used as a control for TNF effects. Fugene 6 (Roche) was used for all the transfections according to manufacturer's directions. Cells stably expressing YFP[1]-p50/YFP[2]-p65 were seeded at 20,000 cells/well in black-walled poly-lysine coated 96 well plate (Greiner). Twenty-four hours later, the cells were incubated with human TNF-alpha (Roche) for 30 min. Nuclei were stained with Hoechst 33342 (Molecular Probes) at 10 micrograms/ml for 10 min. Cells were rinsed with HBSS (Invitrogen) and kept in the same buffer. Fluorescence was visualized and images were acquired using a Discovery-1 automated fluorescence imager (Molecular Devices, Inc.) equipped with excitation and emission filters 470/35 and 535/60, respectively. […] For the high throughput screening campaign described below, cells were pretreated with compounds (10 micromolar) for 60 minutes and then stimulated with TNFalpha for 30 minutes in the presence of drugs. Cells were then fixed with 2% formaldehyde in HBSS and subsequently stained with Hoechst 33342. All liquid handling was done using a Biomek FX (Beckman) instrument and images were acquired as described above. Images were analyzed using Image J. Translocation is assessed by calculating the nuclear/cytoplasmic ratio of the mean fluorescence intensity for a population of cells (denoted as n) over several images for a given condition.
Genesis Plus is a collection of 960 diverse compounds, and includes compounds with known toxicity or fluorescent properties. Inclusion of compounds with such properties is important in HTS assay validation, as they might complicate analysis. The final concentration of compounds in wells was 10 micromolar, and all wells contained 0.5% DMSO concentration. […] Following fixation and staining of nuclei, fluorescence was analyzed on the automated fluorescent microscopy platform (Discovery 1; Universal Imaging/Molecular Devices Corp.). […]

p53/p53 interaction = assay: high-content IFP PCA for p53/p53, nuclear mean fluorescence; format: cell-based, human; conditions: Trichostatin A 0.5 micromolar; for effect on p53/p53 interaction in both assays (absence and presence of CPT): unstimulated and 500 nM CPT-stimulated, LY294002 25 micromolar, SB 203580 25 micromolar, Geldanamycin 2.5 micromolar; for effect on p53/p53 interaction (nuclear mean fluorescence) in the presence of CPT: 500 nM CPT 16 hours, MS-275 10 micromolar, HA 14-1 2 micromolar
Text: Open reading frames of full-length human p53 were fused in-frame to the 5′-end of IFP[1] and the 3′-end of IFP[2] to generate the following constructs in a pcDNA3.1 (Invitrogen) backbone: p53-IFP[1] and IFP[2]-p53. The final p53-IFP[1] construct contained a Zeocin selectable marker, while the IFP[2]-p53 construct contained a hygromycin selectable marker. All fusions were through a flexible linker encoding a 10-amino acid peptide (GlyGlyGlyGlySer)2, also referred to throughout as (GGGGS)2 (SEQ ID No.1). DNAs from recombinant constructs were isolated on a Beckman FX robotic workstation (Beckman Coulter, Fullerton, Calif.) using Qiagen Turbo BioRobot Prep kits or manually using Qiagen Midi Prep kits. Isolated DNAs were quantitated and then normalized to a concentration of 50 ng/microliter.
Approximately 24 hours prior to transfection cells were seeded into 96 well poly-D-Lysine coated plates (Greiner) using a Multidrop 384 peristaltic pump system (Thermo Electron Corp., Waltham, Mass.) at a density of 7,500 cells per well. A total of 100 ng of DNA (p53–IFP[1] and IFP[2]-p53) was co-transfected using Fugene 6 (Roche) according to the manufacturer's protocol. Cells expressing the PCA pair in the absence of stimulation were incubated with medium containing drugs for 30 minutes, 90 minutes, and 8 hours. Alternatively, cells stimulated with camptothecin (CPT) were pre-treated with drugs for 2 hours, then incubated with 500 nM CPT for an additional 16 hours in the presence of the following test compounds that were known or suspected to affect the p53 pathway: CPT, genistein, Trichostatin A, MS-275, LY294002, SB203580, HA14-1, or Geldanamycin, at the concentrations indicated in the Legend to FIG. 4. […] Fluorescence resulting from IFP PCA was captured using the Discovery-1automated fluorescence imager (Molecular Devices, Inc.) equipped with a robot arm (CRS Catalyst Express; Thermo Electron Corp., Waltham, Mass.). Images were acquired for YFP fluorescence (excitation filter: 480/40 nm; emission filter 535/50 nm), Hoechst fluorescence (excitation filter: 360/40 nm; emission filter 465/30 nm), and Texas Red fluorescence (excitation filter: 560/50 nm; emission filter 650/40 nm). […]
Automated image analysis was performed using Image J freeware to quantitate the level of fluorescence contributed by the PCA in each image. For the p53:p53 PCA, background contributed by cellular auto-fluorescence was subtracted from each image, then the mean pixel fluorescence intensity was determined within the nucleus of each cell. […] Quantitative values for the unstimulated PCA are shown in mauve, with data from the CPT-stimulated assay shown in blue. […]

With `NC1=N/C(=C2/CCNC(=O)c3[nH]ccc32)C(=O)N1` [DBH] the “effect on the interaction between Chk1 and p53 (mean rate of hydrolysis of BLA substrate)” value (Chk1/p53 interaction) was “significant effects”.
With `Cn1c(=O)[nH]c(=O)c2[nH]cnc21` [3-methylxanthine] the “result in Genesis Plus library screen of p50/p65 PCA” value (p50/p65 complex) was “called as hits”.
For `Cn1c2ccccc2c2c3c(c4c5ccccc5n(CCC#N)c4c21)CNC3=O` [Go6976], the “effect on the interaction between Chk1 and p53 (mean rate of hydrolysis of BLA substrate)” value (Chk1/p53 interaction) was “significant effects”.
With `C[S+]([O-])c1ccc(-c2nc(-c3ccncc3)c(-c3ccc(F)cc3)[nH]2)cc1` (centres unmarked) [SB 203580] the “effect on p53/p53 interaction in both assays (absence and presence of CPT)” value (p53/p53 interaction) was “increased association”.
In the case of `CC(/C=C/C(=O)NO)=C\[C@@H](C)C(=O)c1ccc(N(C)C)cc1` [Trichostatin A], the “effect on p53/p53 interaction (nuclear mean fluorescence) in the presence of CPT” value (p53/p53 interaction) is reported as “dramatic increase; also recorded: significantly stimulated” and the “effect on p53/p53 interaction in both assays (absence and presence of CPT)” value (p53/p53 interaction) is reported as “potentiating effect”.
With `Nc1ccccc1NC(=O)c1ccc(CNC(=O)OCc2cccnc2)cc1` [MS-275] the “effect on p53/p53 interaction (nuclear mean fluorescence) in the presence of CPT” value (p53/p53 interaction) was “significantly stimulated”.
For `C=C(C)[C@H]1Cc2c(ccc3c2O[C@@H]2COc4cc(OC)c(OC)cc4[C@@H]2C3=O)O1` [rotenone], the “result in Genesis Plus library screen of p50/p65 PCA” value (p50/p65 complex) was “called as hits”.
